This test has as its target T1, serotonin S2 (5-HT2) receptors (Rattus norvegicus, UniProt P14842).
T1 construct: cortical tissue is dissected and weighed; from tissue; host or cells: cerebral cortex membranes of male Wistar (Mol:Wist) rats
Briefly: inhibition of 3H-ketanserin binding to serotonin S2 (5-HT2) receptors in rat cortex in vitro. The settings on record: 3H-ketanserin 0.5 nM, rat cortex membranes, read-out: Binding IC50, 3H Ket. On the procedure:
Method in Hyttel, Pharmacology & Toxicology, 61, 126-129. 1987.
Male Wistar (Mol:Wist) rats (125-250 g) are sacrifices and cortical tissue is dissected and weighed. The tissue is homogenized (Ultra Turrax, 10 sec.) in 10 ml of ice-cold 50 mM tris buffer pH 7.7 (at 25° C.). The centrifuge glassware used in this step has been rinsed by sonication for 10 min. in ethanol. The homogenate is centrifuged twice at 20,000 g for 10 min. at 4° C. with rehomogenization of the pellet in 10 ml ice-cold buffer. The final pellet is homogenized in 500 vol (w/v) ice-cold buffer.
Incubation tubes kept on ice in triplicate receive 100 μl of drug solution in water (or water for total binding) and 2000 μl of tissue suspension (final tissue content corresponds to 4 mg original tissue). […] After incubation for 30 min. the samples are filtered under vacuum (0-50 mBar) through Whatman GF/F filters (25 mm). The tubes are rinsed with 5 ml ice-cold buffer which are then poured on the filters. Thereafter, the filters are washed with 2×5 ml of buffer. The filters are placed in counting vials and 4 ml of appropriate scintillation fluid (e.g., Picofluor™15) are added. After shaking for 1 h and storage 2 hrs in the dark the content of radioactivity is determined by liquid scintillation counting. Specific binding is obtained by subtracting the nonspecific binding in the presence of 1 μM mianserin. For determination of the inhibition of binding five concentrations of drugs covering 3 decades are used.
The IC50 value is determined as the concentration at which the binding is 50% of the total binding in control samples minus the nonspecific binding in the presence of 1 μM mianserin.
T1 sequence (P14842 whole entry): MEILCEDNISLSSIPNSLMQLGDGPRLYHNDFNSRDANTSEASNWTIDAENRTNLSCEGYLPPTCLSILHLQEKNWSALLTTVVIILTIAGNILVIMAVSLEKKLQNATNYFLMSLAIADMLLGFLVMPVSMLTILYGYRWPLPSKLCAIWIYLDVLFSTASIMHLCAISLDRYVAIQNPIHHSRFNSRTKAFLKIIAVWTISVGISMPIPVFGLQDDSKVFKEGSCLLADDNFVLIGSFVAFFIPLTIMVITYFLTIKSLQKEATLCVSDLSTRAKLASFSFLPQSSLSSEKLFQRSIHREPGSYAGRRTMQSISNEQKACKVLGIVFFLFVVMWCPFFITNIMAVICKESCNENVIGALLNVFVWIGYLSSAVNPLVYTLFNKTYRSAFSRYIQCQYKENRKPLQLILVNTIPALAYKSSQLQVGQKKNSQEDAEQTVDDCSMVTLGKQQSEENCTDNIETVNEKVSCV
`O=C1NCCN1CCN1CCC(c2cn(-c3ccc(F)cc3)c3cc(C(F)(F)F)ccc23)CC1` [Compound 4d, 1-(4-fluorophenyl)-3-[1-[2-(2-imidazolidinon-1-yl)ethyl]-4-piperidyl]-6-trifluoromethyl-1H-indole]: the half-inhibitory concentration (IC50) (as a rule, the midpoint of a concentration-inhibition curve) was 1.7 nM.
As for `OCCN1CCC(c2cn(-c3ccc(F)cc3)c3cc(Cl)ccc23)CC1` [Compound 4f, 6-chloro-1-(4-fluorophenyl)-3-[1-(2-hydroxyethyl)-4-piperidyl]-1H-indole], the figure is 11 nM; as for `O=C1NCCN1CCN1CCC(c2cn(-c3ccc(F)cc3)c3cc(Br)ccc23)CC1` [Compound 4h, 6-bromo-1-(4-fluorophenyl)-3-[1-[2-(2-imidazolidinon-1-yl)ethyl-]-4-piperidyl]-1H-indole], 1.8 nM.
For `CC(C)N1CCN(CCN2CCC(c3cn(-c4ccc(F)cc4)c4cc(Br)ccc34)CC2)C1=O` [Compound 5b, 6-bromo-1-(4-fluorophenyl)-3-[1-[2-[3-(2-propyl)-2-imidazolidinon-1-yl]ethyl]-4-piperidyl]-1H-indole], the IC50 stood at 2 nM.
The figure for `CC(C)c1ccc2c(C3CCN(CCN4CCNC4=O)CC3)cn(-c3ccc(F)cc3)c2c1` [Compound 5d, 1-(4-fluorophenyl)-6-(2-propyl)-3-[1-[2-(2-imidazolidinon-1-yl)ethyl]-4-piperidyl]-1H-indole] is 18 nM.
`CC(C)N1CCN(CCN2CCC(c3cn(-c4ccc(F)cc4)c4cc(Cl)c(Cl)cc34)CC2)C1=O` [Compound 5e, 5,6-dichloro-1-(4-fluorophenyl)-3-[1-[2-[3-(2-propyl)-2-imidazolidinon-1-yl]ethyl]-4-piperidyl]-1H-indole]: the IC50 was found to be 3.4 nM.
Take `CC(C)N1CCN(CCN2CCC(c3cn(-c4ccc(F)cc4)c4cc5c(cc34)CCC5)CC2)C1=O` [Compound 5g, 1-(4-fluorophenyl)-3-[1-[2-[3-(2-propyl)-2-imidazolidinon-1-yl]ethyl]-4-piperidyl]-1,5,6,7-tetrahydrocyclopent[f]-1H-indole]: the IC50 was 3.2 nM.
`O=C1NCCN1CCN1CCC(c2cn(-c3ccc(F)cc3)c3cc4c(cc23)CCC4)CC1` [Compound 5h, 1-(4-fluorophenyl)-3-[1-[2-(2-imidazolidinon-1-yl)ethyl]-4-piperidyl]-1,5,6,7-tetrahydrocyclopent[f]-1H-indole]: the IC50 worked out at 1.2 nM.
The figure for `CNC(=S)NCCN1CCC(c2cn(-c3ccc(F)cc3)c3cc(Cl)ccc23)CC1` [Compound 9c, 6-chloro-1-(4-fluorophenyl)-3-[1-[2-(3-methyl-1-thioureido)-1-ethyl]-4-piperidyl]-1H-indole] is 12 nM; for `CCN(CCN1CCC(c2cn(-c3ccc(F)cc3)c3cc(Cl)ccc23)CC1)C(=O)N(C)C` [Compound 9e, 6-chloro-3-[1-[2-(3,3-dimethyl-1-ethyl-1-ureido)-1-ethyl]-4-piperidyl]-1-(4-fluorophenyl)-1H-indole] it is 6.4 nM.
The figure for `CN(C)C(=S)NCCN1CCC(c2cn(-c3ccc(F)cc3)c3cc(Cl)ccc23)CC1` [Compound 9f] is 2.5 nM; for `CC(C)N(C)C(=O)NCCN1CCC(c2cn(-c3ccc(F)cc3)c3cc(Cl)ccc23)CC1` [Compound 9g, 6-chloro-1-(4-fluorophenyl)-3-[1-[2-[3-methyl-3-(2-propyl)-1-ureido]-1-ethyl]-4-piperidyl]-1H-indole] it is 6.2 nM; for `CNC(=O)N(C)CCN1CCC(c2cn(-c3ccc(F)cc3)c3cc(Cl)ccc23)CC1` [Compound 9h, 6-chloro-1-(4-fluorophenyl)-3-[1-[2-(1,3-dimethyl-1-ureido)-1-ethyl]-4-piperidyl]-1H-indole] it is 1.6 nM.
The figure for `CC(C)NC(=O)N(C)CCN1CCC(c2cn(-c3ccc(F)cc3)c3cc(Cl)ccc23)CC1` [Compound 9i, 6-chloro-1-(4-fluorophenyl)-3-[1-[2-(1-methyl-3-(2-propyl)-1-ureido)-1-ethyl]-4-piperidyl]-1H-indole] is 2.2 nM; for `CC(=O)NCCN1CCC(c2cn(-c3ccc(F)cc3)c3cc(Cl)ccc23)CC1` [Compound 9j] it is 11 nM; for `CCOC(=O)NCCN1CCC(c2cn(-c3ccc(F)cc3)c3cc(Cl)ccc23)CC1` [Compound 9k] it is 4 nM.
Consider `CN(C)C(=O)NCCN1CCC(c2cn(-c3ccc(F)cc3)c3cc(Cl)ccc23)CC1` [Compound 9l, 6-chloro-3-[1-[2-(3,3-dimethyl-1-ureido)-1-ethyl]-4-piperidyl]-1-(4-fluorophenyl)-1H-indole], for which the IC50 worked out at 1.3 nM.
With `Fc1ccc(-n2cc(C3CCN(CCN4CCNC4=S)CC3)c3ccc(Cl)cc32)cc1` [Compound 12a, 6-chloro-1-(4-fluorophenyl)-3-[1-[2-(2-imidazolidinthion-1-yl)ethyl]-4-piperidyl]-1H-indole], the IC50 came to 6.2 nM.
The figure for `CC(C)N1CCN(CCN2CCC(c3cn(-c4ccccc4)c4cc(Cl)ccc34)CC2)C1=O` [Compound 15k, 6-chloro-1-phenyl-3-[1-[2-[3-(2-propyl)-2-imidazolidinon-1-yl]ethyl]-4-piperidyl]-1H-indole] is 4.5 nM; for `CC(C)n1ccn(CCN2CCC(c3cn(-c4ccc(F)cc4)c4cc(Cl)ccc34)CC2)c1=O` [Compound 17a, 6-chloro-1-(4-fluorophenyl)-3-[1-[2-[3-(2-propyl)imidazol-2-on-1-yl]ethyl]-4-piperidyl]-1H-indole] it is 4.6 nM.
As to `O=C1N(CCO)CCN1CCN1CCC(c2cn(-c3ccc(F)cc3)c3cc(Cl)ccc23)CC1` [Compound 18a, 6-chloro-1(4-fluorophenyl)-3-[1-[2-[3-(2-hydroxyethyl)-2-imidazolidinon-1-yl]e-thyl]-4-piperidyl]-1H-indole], the IC50 came out at 2.5 nM.
Take `CSc1ccc2c(C3CCN(CCN4CCN(C(C)C)C4=O)CC3)cn(-c3ccc(F)cc3)c2c1` [Compound 19a, 1-(4-fluorophenyl)-6-methylthio-3-[1-[2-[3-(2-propyl)-2-imidazolidinon-1-yl]ethyl]-4-piperidyl]-1H-indole]: the IC50 was determined as 3.2 nM.
As for `CC(C)N1CCN(CCN2CCC(C3CN(c4ccc(F)cc4)c4cc(Cl)ccc43)CC2)C1=O` (stereo not drawn) [Compound 21a, 6-chloro-1-(4-fluorophenyl)-3-[1-[2-[3-(2-propyl)-2-imidazolidinon-1-yl]ethyl]-4-piperidyl]-2,3-dihydro-1H-indole], the figure is 9.6 nM.
For the molecule `Cc1c(C2=CCN(CCN3CCNC3=O)CC2)c2ccccc2n1-c1ccc(F)cc1` [Compound 24b, 1-(4-fluoropheyl)-3-[1-[2-(2-imidazolidinon-1-yl)ethyl]-1,2,3,6tetrahydropyridin-4-yl]-2-methyl-1H-indole], the IC50 was 1 nM.

These data come from patent US5216001A, “Indole derivatives” (H. Lunbeck A/S, priority 1990, dated 1993).
